System: H2AX
Assay: Immunoblotting of DNA damage response (H2AX phosphorylation)
Format: cell-based, human
Conditions: BJ fibroblasts expressing control shRNA, 10 μM for 4 hrs
Source text: The antibodies used in this study included: rabbit anti-H2AX (Novus); rabbit anti—H2AX (Upstate Biotechnology); rabbit anti-H2B (Upstate Biotechnology); mouse anti-H3 (Upstate Biotechnology); rabbit anti-H4 (Upstate Biotechnology); rabbit anti-macro H2A.1 (Upstate Biotechnology); rabbit anti-dimethyl H3 (K9) (Upstate Biotechnology); rabbit anti-acetyl H3 (Lys9) (Upstate Biotechnology); rabbit anti-acetyl H4 (K12) (Upstate Biotechnology); goat anti-phospho-specific BRCA1 (Ser1497) (Santa Cruz); rabbit anti-ATM-pS1981 (Rockland); rabbit anti-ATM-S1981 (Rockland); and mouse anti-p53 (Ab6) (Oncogene). Cells were lysed in RIPA buffer (12.5 mM NaPO4, pH7.2, 2 mM EDTA, 50 mM NaF, 1.25% NP-40, 1.25% SDS, 0.1 mM DTT) except when specific conditions are noted. For extraction under low salt conditions, cells were lysed in a buffer comprised of 20 mM Tris-HCl, pH 7.4, 150 mM NaCl, 0.1% NP40, 0.1 mM DTT. For high salt condition extraction, cells were lysed in a buffer composed of 20 mM Tris-HCl, pH 7.4, 500 mM NaCl, 0.5% NP40, 0.1 mM DTT. For acid precipitation of histones, cells were homogenized in 0.2 N H2SO4 and centrifuged. Histones were precipitated by adding ¼ volume of 100% (w/v) TCA. The pellets were suspended in 100% ethanol and centrifuged again at 13,000×g. 10 μg of protein was subjected to immunoblotting.

With `CCc1c2c(nc3ccc(OC(=O)N4CCC(N5CCCCC5)CC4)cc13)-c1cc3c(c(=O)n1C2)COC(=O)[C@]3(O)CC` [irinotecan] as the compound, how does the “Phosphorylation of H2AX after treatment with chemotherapeutic agent” value read?
Its value is “induced phosphorylation of H2AX”.
